Results on eight compounds are retold here after patent US20250333397A1 (REMIX THERAPEUTICS INC., priority 2021, published 2025).

Read-outs that look alike come from different tables or passages of the source.

What all share (type): cell-based, human
One assay concerns HTT mRNA. Kind of assay: RT-qPCR splicing assay, HTT canonical (CJ) and alternative (AJ) junction mRNA. The settings on record: for AC50: read-out: HTT AJ (AC50, increase in AJ mRNA). The essentials: (§1)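 A673 (DMEM/10% FBS) or K562 (IMDM/10% FBS) cells treated 24 h at 37 °C with 11-point 3-fold dilutions, top 10 uM final, DMSO ≤0.25%. Lysates read by one-step RT-qPCR for CJ and AJ isoforms, normalized to GAPDH, GUSB or PPIA. ΔΔCt vs DMSO gives RQ via 2^(-ΔΔCt).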
On the technique in general: Real-time PCR tracks product formation cycle by cycle.

In another assay the test system is MYB mRNA. Briefly: RT-qPCR splicing assay, MYB canonical (CJ) and alternative (AJ) junction mRNA. The settings on record: for AC50: read-out: MYB AJ (AC50, increase in AJ mRNA). The essentials:
as §1

For a further assay, the system named is SMN2 mRNA. Briefly: RT-qPCR splicing assay panel, SMN2 canonical junction (CJ) mRNA. The essentials: as §1
The next assay concerns Target C mRNA. Kind of assay: RT-qPCR splicing assay panel, Target C canonical junction (CJ) mRNA. The essentials: as §1
Where [1] appears, read: Homo sapiens, 24 h, Table 3A, A673 or K562 cells, 24 h treatment.
Where [2] appears, read: Homo sapiens, 24 h, Table 3A, A673 or K562 cells, 24 h treatment, read-out: HTT CJ (IC50, decrease in CJ mRNA).
[3] abbreviates: Homo sapiens, canonical junction (CJ) mRNA, RT-qPCR panel, Table 4A, read-out: HTT, decrease in CJ mRNA levels, IC50.
[4] abbreviates: Homo sapiens, 24 h, Table 3A, A673 or K562 cells, 24 h treatment, read-out: MYB CJ (IC50, decrease in CJ mRNA).
[5] abbreviates: Homo sapiens, canonical junction (CJ) mRNA, RT-qPCR panel, Table 4A, read-out: MYB, decrease in CJ mRNA levels, IC50.
[6] abbreviates: Homo sapiens, canonical junction (CJ) mRNA, RT-qPCR panel, Table 4A, read-out: SMN2, decrease in CJ mRNA levels, IC50.
Where [7] appears, read: Homo sapiens, canonical junction (CJ) mRNA, RT-qPCR panel, Table 4A, read-out: Target C, decrease in CJ mRNA levels, IC50.
Where [8] appears, read: Homo sapiens, 24 h, Table 3B, A673 or K562 cells, 24 h treatment.
[9] abbreviates: Homo sapiens, 24 h, Table 3B, A673 or K562 cells, 24 h treatment, read-out: HTT CJ (IC50, decrease in CJ mRNA).
Setting [10] is: Homo sapiens, Table 4B, gene panel, read-out: HTT (IC50, decrease in CJ mRNA levels).
Where [11] appears, read: Homo sapiens, 24 h, Table 3B, A673 or K562 cells, 24 h treatment, read-out: MYB CJ (IC50, decrease in CJ mRNA).
Where [12] appears, read: Homo sapiens, Table 4B, gene panel, read-out: MYB (IC50, decrease in CJ mRNA levels).
Where [13] appears, read: Homo sapiens, Table 4B, gene panel, read-out: SMN2 (IC50, decrease in CJ mRNA levels).
Setting [14] is: Homo sapiens, Table 4B, gene panel, read-out: Target C (IC50, decrease in CJ mRNA levels).
Where [15] appears, read: Table 3A, A673 or K562 cells, 24 h treatment.

Turning to `COc1cc(-c2ccc(-c3ccc(N4CCC(CNC(C)(C)C)C4)nn3)c(O)c2)cnn1` (stereo not shown) [Compound 351, 2-(6-{3-[(tert-butylamino)methyl]pyrrolidin-1-yl}pyridazin-3-yl)-5-(6-methoxypyridazin-4-yl)phenol], the AC50 was 100 to 1000 nM in the assay on HTT mRNA (setting [1]) and 1000 to 10000 nM in the assay on MYB mRNA (setting [1]). Moreover, the IC50 is below 100 nM in the assay with HTT mRNA (setting [2]); below 100 nM with HTT mRNA (setting [3]); 100 to 1000 nM in the assay with MYB mRNA (setting [4]); 100 to 1000 nM with MYB mRNA (setting [5]); 100 to 1000 nM in the assay with SMN2 mRNA (setting [6]); 100 to 1000 nM with Target C mRNA (setting [7]).
As for `COc1cc(-c2cc(O)c(-c3ccc(N4CC[C@@H](NC(C)(C)C)C4)nn3)cc2F)cnn1` [Compound 212, 2-{6-[(3R)-3-(tert-butylamino)pyrrolidin-1-yl]pyridazin-3-yl}-4-fluoro-5-(6-methoxypyridazin-4-yl)phenol], the AC50 with HTT mRNA (setting [1]) and with MYB mRNA (setting [1]) was below 100 nM each time. Also, the IC50 with HTT mRNA (setting [2]), in the assay on HTT mRNA (setting [3]), with MYB mRNA (setting [4]), with MYB mRNA (setting [5]), in the assay on SMN2 mRNA (setting [6]) and in the assay with Target C mRNA (setting [7]) was below 100 nM each time.
In the case of `Cc1nc2c(F)c(O)c(-c3ccc(N4CC[C@H](NC(C)(C)C)C4)nn3)cc2o1` [Compound 843], the AC50 with HTT mRNA (setting [8]) and in the assay on MYB mRNA (setting [8]) was above 10000 nM each time. The IC50 in the assay with HTT mRNA (setting [9]), in the assay on HTT mRNA (setting [10]), in the assay on MYB mRNA (setting [11]), in the assay with MYB mRNA (setting [12]), in the assay on SMN2 mRNA (setting [13]) and in the assay with Target C mRNA (setting [14]) was above 10000 nM throughout.
Regarding `Cc1nc2cc(O)c(-c3cnc(N4CC[C@H](N(C)C(C)(C)C)C4)nn3)cc2o1` [Compound 857], the AC50 in the assay on HTT mRNA (setting [8]) and in the assay on MYB mRNA (setting [8]) was 100 to 1000 nM throughout. For the same compound, the IC50 was below 100 nM with HTT mRNA (setting [9]); below 100 nM in the assay on HTT mRNA (setting [10]); 100 to 1000 nM in the assay on MYB mRNA (setting [11]); 100 to 1000 nM in the assay with MYB mRNA (setting [12]); below 100 nM with SMN2 mRNA (setting [13]); 100 to 1000 nM in the assay on Target C mRNA (setting [14]).
For `CN([C@@H]1CCN(c2ccc(-c3ccc(-c4cn[nH]c4)cc3O)nn2)C1)C(C)(C)C` [Compound 446], the AC50 with HTT mRNA (setting [15]) and in the assay on MYB mRNA (setting [15]) was below 100 nM each time. The IC50 in the assay on HTT mRNA (Table 3A, A673 or K562 cells, 24 h treatment, read-out: HTT CJ (IC50, decrease in CJ mRNA)) is below 100 nM; with HTT mRNA (canonical junction (CJ) mRNA, RT-qPCR panel, Table 4A, read-out: HTT, decrease in CJ mRNA levels, IC50), below 100 nM; in the assay with MYB mRNA (Table 3A, A673 or K562 cells, 24 h treatment, read-out: MYB CJ (IC50, decrease in CJ mRNA)), below 100 nM; with MYB mRNA (canonical junction (CJ) mRNA, RT-qPCR panel, Table 4A, read-out: MYB, decrease in CJ mRNA levels, IC50), below 100 nM; in the assay with SMN2 mRNA (canonical junction (CJ) mRNA, RT-qPCR panel, Table 4A, read-out: SMN2, decrease in CJ mRNA levels, IC50), below 100 nM; in the assay on Target C mRNA (canonical junction (CJ) mRNA, RT-qPCR panel, Table 4A, read-out: Target C, decrease in CJ mRNA levels, IC50), below 100 nM.
For `COc1nc(-c2ccc(N3CCC(NC(C)(C)C)C3)nn2)ccc1-c1cnc(C)s1` (stereo not shown) [Compound 355], the AC50 is below 100 nM in the assay with HTT mRNA (setting [1]) and 100 to 1000 nM in the assay with MYB mRNA (setting [1]). For the same compound, the IC50 in the assay with HTT mRNA (setting [2]) was below 100 nM; with HTT mRNA (setting [3]) it was below 100 nM; with MYB mRNA (setting [4]), 100 to 1000 nM; in the assay with MYB mRNA (setting [5]) it was 100 to 1000 nM; in the assay with SMN2 mRNA (setting [6]), below 100 nM; in the assay with Target C mRNA (setting [7]), below 100 nM.
With `Cc1nc2cc(O)c(-c3cnc(N4CC[C@H](NC(C)(C)C)C4)nn3)cc2o1` [Compound 809], the AC50 in the assay on HTT mRNA (setting [8]) and in the assay with MYB mRNA (setting [8]) was 1000 to 10000 nM in each case. The IC50 in the assay on HTT mRNA (setting [9]) was below 100 nM; with HTT mRNA (setting [10]), below 100 nM; in the assay with MYB mRNA (setting [11]), 1000 to 10000 nM; in the assay with MYB mRNA (setting [12]), 1000 to 10000 nM; with SMN2 mRNA (setting [13]) it was 100 to 1000 nM; in the assay on Target C mRNA (setting [14]), 1000 to 10000 nM.
Regarding `CN([C@@H]1CCN(c2ccc(-c3ccc(-c4cn[nH]c4)cc3O)nn2)C1)C(C)(C)C` [Compound 406, 2-{6-[(3R)-3-[tert-butyl(methyl)amino]pyrrolidin-1-yl]pyridazin-3-yl}-5-(1H-pyrazol-4-yl)phenol], the figures for the AC50 in the assay with HTT mRNA (setting [1]) and with MYB mRNA (setting [15]) were 100 to 1000 nM and 1000 to 10000 nM, respectively. For the same compound, the IC50 with HTT mRNA (setting [2]), in the assay with HTT mRNA (setting [3]), in the assay with MYB mRNA (setting [4]), with MYB mRNA (setting [5]), in the assay on SMN2 mRNA (setting [6]) and with Target C mRNA (setting [7]) was 100 to 1000 nM each time.

One may read the AC50 as the concentration at which the activity in the assay is half-maximal. Broadly, the IC50 is the midpoint of a concentration-inhibition curve.
